Measured values as given in patent publication US20040186077A1, “Novel heteroaryl phosphonates as cardioprotective agents” (Medicure International Inc., priority 2003, published 2004).

Test system: Male Wistar rats
Assay: Ischemia reperfusion: LAD occlusion and reperfusion, infarct size as percentage of AAR
Format: in vivo
Details: 32 mg/kg i.v. bolus 5 min before ischemia; regional myocardial ischemia 25 min, reperfusion 2 h; P=0.047 unpaired t-test; vehicle infarct size 56±3% of the AAR
Experimental: Male Wistar rats (200-300 g, Tuck, Rayleigh, Essex, U.K.) were anesthetised with thiopentone sodium (Intraval®, 120 mg/kg i.p.; Rhone-Merrieux, Essex, U.K.). The rats were tracheotomised, intubated and ventilated with a Harvard ventilator (70 strokes/min, tidal volume: 8-10 mL/kg, inspiratory oxygen concentration: 30%). Body temperature was maintained at 38±1° C. The right carotid artery was cannulated and connected to a pressure transducer (MLT 1050, AD Instruments Ltd, Hastings, UK) to monitor mean arterial blood pressure (MAP) and heart rate (HR), which were continuously recorded on a data acquisition system such as Powerlab® Version 4.0.4, AD Instruments, Hastings, UK. The right jugular vein was cannulated for drug administration and the administration of Evans Blue dye (at the end of the experiment). A lateral thoracotomy was performed and the heart was suspended in a temporary pericardial cradle. A snare occluder was placed around the left anterior descending coronary artery (LAD). After completion of the surgical procedure the animals were allowed to stabilise for 30 min before LAD ligation. Five minutes prior to the onset of myocardial ischemia, a bolus injection (i.v.) of either vehicle or phosphonate was administered. The coronary artery was occluded at time 0 by tightening of the occluder. […]

Q: Cc1nc(-c2ccccc2)c(C(F)P(=O)(O)O)c(CO)c1O (stereo not shown) [Compound 38, [Fluoro-(5-hydroxy-4-hydroxymethyl-6-methyl-2-phenyl-pyridin-3-yl)-methyl]-phosphonic acid] was tested. Which myocardial infarct size did it give?
A: Its myocardial infarct size is “reduced myocardial infarct size”.
